Measurements from patent US8372831B2, “Isoxazoline linked pyrrolo[2,1-c][1,4]benzodiazepine hybrids as potential anticancer agents and the process for preparation thereof” (Council of Scientific & Industrial Research, priority 2008, dated 2013).

Legend:
Assay type in all cases: cell-based, human
OVCAR-5 = assay: NCI SRB cytotoxicity, OVCAR-5 (ovarian); details: 48 hrs exposure
Experimental: (§1) Biological Activity: The in vitro biological activity studies were carried out at the National Cancer Institute, Maryland, USA.
(§2) The C8-linked isoxazoline-PBD hybrids have been tested against sixty human tumour cell lines derived from nine cancer types (leukemia, non-small cell lung cancer, colon cancer, CNS cancer, melanoma, ovarian cancer, renal cancer, prostate cancer and breast cancer) as per NCI protocol. For each compound, dose response curves for individual cell lines have been measured at a minimum of five concentrations at 10 fold dilutions. A protocol of 48 hrs continuous drug exposure has been used, and a sulforhodamine B (SRB) protein assay was used to estimate cell viability or growth. The concentration for 50% cell growth inhibition (GI50), total cell growth inhibition (TGI, 0% growth) and 50% cell death (LC50, […]) compared with the control has been calculated (FIG. 2).
(§3) Compound 5b and 9b have been evaluated for in vitro cytotoxicity in sixty cell lines from nine human cancer types of lung (Hop-62, NCI-H226, NCI-H522), leukemia (K-562, SR), colon (HCT-116, HCT-15, HCC-2998), CNS(SF-539), melanoma (SK-MEL-5, UACC-62, M14), ovarian (IGROV1), renal (A498), prostate (PC3) breast (BT-549, MDA-MB-435, HS578T) origin. The results are expressed as percent of cell growth determined relative to that of untreated control cells (Table 1).

A549/ATCC = assay: NCI SRB cytotoxicity, A549/ATCC (non-small cell lung); details: Non-smallcell lung, 48 hrs exposure
Experimental: as §1, §2, §3

NCI-H226 = assay: NCI SRB cytotoxicity, NCI-H226 (non-small cell lung)
Experimental: as §1, §2, §3

MCF7 = assay: NCI SRB cytotoxicity, MCF7 (breast); details: 48 hrs exposure
Experimental: as §1, §2, §3

NCI-H460 = assay: NCI SRB cytotoxicity, NCI-H460 (non-small cell lung); details: NCI-H460, Non-smallcell lung; 48 hrs exposure
Experimental: as §1, §2, §3

IGROV1 = assay: NCI SRB cytotoxicity, IGROV1 (ovarian)
Experimental: as §1, §2, §3

SW-620 = assay: NCI SRB cytotoxicity, SW-620 (colon); details: 48 hrs exposure
Experimental: as §1, §2, §3

SF-539 = assay: NCI SRB cytotoxicity, SF-539 (CNS)
Experimental: as §1, §2, §3

HCT-116 = assay: NCI SRB cytotoxicity, HCT-116 (colon)
Experimental: as §1, §2, §3

[1] = system: Non small cell lung cancer; assay: NCI SRB cytotoxicity, non-small cell lung cancer panel; details: average of six to eight different cancer cell lines; for Log10 LC50: 50% lethality
Experimental: as §1, §2, §3

HOP-92 = assay: NCI SRB cytotoxicity, HOP-92 (non-small cell lung); details: HOP-92, Non-smallcell lung; 48 hrs exposure
Experimental: as §1, §2, §3

Melanoma = assay: NCI SRB cytotoxicity, melanoma panel; details: average of six to eight different cancer cell lines; for Log10 LC50: 50% lethality
Experimental: as §1, §2, §3

DU-145 = assay: NCI SRB cytotoxicity, DU-145 (prostate); details: 48 hrs exposure
Experimental: as §1, §2, §3

HL-60(TB) = assay: NCI SRB cytotoxicity, HL-60(TB) (leukemia); details: 48 hrs exposure
Experimental: as §1, §2, §3

LOX IMVI = assay: NCI SRB cytotoxicity, LOX IMVI (melanoma); details: 48 hrs exposure
Experimental: as §1, §2, §3

U251 = assay: NCI SRB cytotoxicity, U251 (CNS); details: 48 hrs exposure
Experimental: as §1, §2, §3

786-0 = assay: NCI SRB cytotoxicity, 786-0 (renal); details: 48 hrs exposure
Experimental: as §1, §2, §3

UACC-257 = assay: NCI SRB cytotoxicity, UACC-257 (melanoma); details: 48 hrs exposure
Experimental: as §1, §2, §3

HT29 = assay: NCI SRB cytotoxicity, HT29 (colon); details: 48 hrs exposure
Experimental: as §1, §2, §3

HOP-62 = assay: NCI SRB cytotoxicity, HOP-62 (non-small cell lung)
Experimental: as §1, §2, §3

RXF 393 = assay: NCI SRB cytotoxicity, RXF 393 (renal); details: 48 hrs exposure
Experimental: as §1, §2, §3

MDA-MB-435 = assay: NCI SRB cytotoxicity, MDA-MB-435 (breast)
Experimental: as §1, §2, §3

OVCAR-8 = assay: NCI SRB cytotoxicity, OVCAR-8 (ovarian); details: 48 hrs exposure
Experimental: as §1, §2, §3

NCI-H23 = assay: NCI SRB cytotoxicity, NCI-H23 (non-small cell lung); details: NCI-H23, Non-smallcell lung; 48 hrs exposure
Experimental: as §1, §2, §3

Prostate = assay: NCI SRB cytotoxicity, prostate cancer panel; details: average of six to eight different cancer cell lines; for Log10 LC50: 50% lethality
Experimental: as §1, §2, §3

CCRF-CEM = assay: NCI SRB cytotoxicity, CCRF-CEM (leukemia); details: 48 hrs exposure
Experimental: as §1, §2, §3

SK-OV-3 = assay: NCI SRB cytotoxicity, SK-OV-3 (ovarian); details: 48 hrs exposure
Experimental: as §1, §2, §3

Ovarian = assay: NCI SRB cytotoxicity, ovarian cancer panel; details: average of six to eight different cancer cell lines; for Log10 LC50: 50% lethality
Experimental: as §1, §2, §3

[2] = NCI-H226, Non-smallcell lung, 48 hrs exposure
[3] = IGROV1, Ovarian, 48 hrs exposure
[4] = HCT-116, Colon, 48 hrs exposure
[5] = HOP-62, Non-smallcell lung, 48 hrs exposure
[6] = MDA-MB-435, Breast, 48 hrs exposure

Row | Compound | GI50 (OVCAR-5) [nM] | GI50 (A549/ATCC) [nM] | GI50 (NCI-H226; [2]) [nM] | GI50 (MCF7) [nM] | GI50 (NCI-H460) [nM] | GI50 (IGROV1; [3]) [nM] | GI50 (SW-620) [nM] | GI50 (SF-539; SF-539, CNS, 48 hrs exposure) [nM] | GI50 (HCT-116; [4]) [nM] | Log10 LC50 [1] [mol/L] | Log10GI50 [1] [mol/L] | GI50 (HOP-92) [nM] | Log10 LC50 (Melanoma) [mol/L] | Log10GI50 (Melanoma) [mol/L] | GI50 (DU-145) [nM] | GI50 (HL-60(TB)) [nM] | GI50 (LOX IMVI) [nM] | GI50 (U251) [nM] | GI50 (786-0) [nM] | GI50 (UACC-257) [nM] | further results
1 | COc1cc(C2=NOC(c3cc(OC)c(OC)c(OC)c3)C2)ccc1OCCCCOc1cc2c(cc1OC)C(=O)N1CCC[C@H]1C=N2 (stereo partly drawn) [Compound 5b, (11aS)-7-(methyloxy)-8-(4-[(2-(methyloxy)-4-5-[3,4,5-tri(methyloxy)phenyl]-4,5-dihydro-3-isoxazolylphenyl)oxy]butyloxy)-2,3,5,11a-tetrahydro-1H benzo[e]pyrrolo[1,2-a][1,4]diazepin-5-one] | 420 | 260 | 170 | 200 | 210 | 240 | 230 | 220 | 180 | −4.78 | −6.59 | 310 | −5.82 | −6.68 | 320 | 180 | 220 | 300 | 280 | 270 | GI50 (NCI-H226; non-small cell lung cancer NCI-H226): 310 nM; GI50 (IGROV1; ovarian IGROV1): 240 nM; GI50 (SF-539; CNS SF-539): 220 nM; GI50 (HCT-116; colon cancer HCT-116): 180 nM; GI50 (HT29): 360 nM; GI50 (HOP-62; [5]): 270 nM; GI50 (HOP-62; non-small cell lung cancer HOP-62): 270 nM; GI50 (RXF 393): 210 nM; GI50 (MDA-MB-435; [6]): 170 nM; GI50 (MDA-MB-435; breast MDA-MB-435): 170 nM; GI50 (OVCAR-8): 370 nM; GI50 (NCI-H23): 270 nM; Log10 LC50 (Prostate): −4.82 mol/L; Log10GI50 (Prostate): −6.49 mol/L; GI50 (CCRF-CEM): 160 nM; GI50 (SK-OV-3): 470 nM; Log10 LC50 (Ovarian): −4.84 mol/L; Log10GI50 (Ovarian): −6.44 mol/L
2 | COc1ccc(C2CC(c3ccc(OC)c(OC)c3OC)=NO2)cc1OCCCCOc1cc2c(cc1OC)C(=O)N1CCC[C@H]1C=N2 (stereo partly drawn) [Compound 9b, (11aS)-7-(methyloxy)-8-(4-[(2-(methyloxy)-5-3-[2,3,4-tri(methyloxy)phenyl]-4,5-dihydro-5-isoxazolylphenyl)oxy]butyloxy)-2,3,5,11a-tetrahydro-1H-benzo[e]pyrrolo[1,2-a][1,4]diazepin-5-one] | 3130 | 2330 | 1670 | 1750 | 1850 | 1570 | 1550 | 1800 | 1700 | −4.73 | −5.70 | 2470 | −5.12 | −5.72 | 2480 | 1900 | 1470 | 1730 | 1570 | 2330 | GI50 (HT29): 2750 nM; GI50 (HOP-62; [5]): 1680 nM; GI50 (RXF 393): 1390 nM; GI50 (MDA-MB-435; [6]): 3540 nM; GI50 (OVCAR-8): 2550 nM; GI50 (NCI-H23): 1830 nM; Log10 LC50 (Prostate): −4.54 mol/L; Log10GI50 (Prostate): −5.92 mol/L; GI50 (CCRF-CEM): 1410 nM; GI50 (SK-OV-3): 3370 nM; Log10 LC50 (Ovarian): −4.48 mol/L; Log10GI50 (Ovarian): −5.61 mol/L
